We go through one molecule from patent publication US10683553B2, “Method for determining sensitivity to simultaneous inhibitor against PARP and Tankyrase” (THE ASAN FOUNDATION, priority 2015, dated 2020).

What all share (assay type): cell-based
The test system of test [1] is RKO human colon cancer cell line. The test can be described thus: DNA damage by r-H2AX immunocytochemistry. As to conditions: RKO (p53 normal, LIG4 mutant); 50 μM, 48 hours. From the text:
In order to analyze the degree of DNA damage of Compound A, which is a novel PARP/Tankyrase simultaneous inhibitor, when the p53 gene is a normal type and the LIG4 gene is a mutant type, the present inventors treated a novel PARP/Tankyrase simultaneous inhibitor, Compound A, and the competitive drug PARP inhibitor, olaparib, in the RKO human colon cancer cell line in which the p53 gene is a normal type and the LIG4 gene is a mutant type, and the DNA damage was confirmed by the immunochemical method as the expression level of r-H2AX. The conditions and methods of the experiment were as follows: RKO human colon cancer cell line in which the p53 gene is a normal type and the LIG4 gene is a mutant type was cultured in RPMI1640 (10% FBS, 1% penicillin/streptomycin) and cultured in a 60 mm plate at 1×10^5 per well for 24 hours at 37° C. […] The r-H2AX antibody was diluted at a ratio of 1:100 in 1% BSA, reacted overnight at 4° C., washed three times for 10 minutes with TBS-T buffer, and the secondary antibody (Alexa Fluor®488 fitc) was diluted at a ratio of 1:100 in 1% BSA, reacted at room temperature for 2 hours, and then washed with TBS-T A buffer three times for 10 minutes, and stained with DAPI to confirm the expression level of r-H2AX under a fluorescence microscope.

For test [2], the system named is HCT116 human colon cancer cell line. In words: Trypan blue apoptosis after siRNA knockdown of DNA repair genes. As to conditions: HCT116 p53 normal, LIG4 siRNA knockdown; 25 μM and 50 μM, 48 hours. The text has this: In order to analyze the degree of apoptosis of Compound A, which is a novel PARP/Tankyrase simultaneous inhibitor, depending on the presence or absence of the p53 gene and the presence or absence of the DNA repair gene, the present inventors reduced gene expression by an ATR, XLF, XRCC4 and LIG4 siRNA knockdown method known as a DNA repair gene in the human colon cancer cell line HCT116 in which the p53 normal gene is present, and then treated with Compound A, which is a novel PARP/Tankyrase simultaneous inhibitor. Then, the number of cells was measured by trypan blue staining assay to confirm the degree of apoptosis. As the experimental conditions and methods, the HCT116 p53 null human colon cancer cell line in which the p53 gene is normal and the HCT116 and p53 gene are deficient is cultured in RPMI1640 (10% FBS, 1% penicillin/streptomycin), and 1×10^5 per well was cultured at 37° C. for 24 hours in a 60 mm plate. ATR, XLF, XRCC4 and LIG4 (SEQ ID NO: 4; ATR siRNA 5′-GAGUUCUCAGAAGUCAACC-3′, SEQ ID NO: 5; XLF siRNA 5′-[…]-3′, SEQ ID NO: 6; XRCC4 siRNA 5′-[…]-3′, SEQ ID NO: 7; LIG4 siRNA 5′-GGGAGUGUCUCAUGUAAUA-3′) were infused into cells by means of Lipofectamin 2000 (Invitrogen), and knocked down at 37° C. for 48 hours. […] After 48 hours of culturing, the number of cells was measured by trypan blue staining and the degree of apoptosis was confirmed.

The test system of test [3] is HCT8 human colon cancer cell line. The test can be described thus: Trypan blue apoptosis with overexpressed mutant LIG4 (G833A or T1704C). As to conditions: HCT8 overexpressing LIG4 mutant G833A or T1704C vs control group (empty); 25 μM and 50 μM, 48 hours. The text has this: In order to analyze the degree of apoptosis of Compound A, which is a novel PARP/Tankyrase simultaneous inhibitor, when the p53 genotype is a normal type and an LIG4 genotype is a mutant type, the present inventors treated a novel PARP/Tankyrase simultaneous inhibitor, Compound A, and the competitive drug PARP inhibitor, olaparib, while overexpressing an LIG4 mutant type in the HCT8 human colon cancer cell line in which the p53 gene is a normal type and an LIG4 genotype is a normal type. Then, the number of cells was measured by trypan blue staining assay to confirm the degree of apoptosis. […] After 48 hours of culturing, the number of cells was measured by trypan blue staining and the degree of apoptosis was confirmed.
The present inventors conducted an experiment in the same manner as Example 9 to analyze the degree of apoptosis and DNA damage of Compound A, which is a novel PARP/Tankyrase simultaneous inhibitor, when the p53 genotype is a mutant type and an LIG4 genotype is a mutant type. The number of cells was measured by trypan blue staining method and the degree of apoptosis was confirmed. […] It was washed with TBS-T buffer three times for 15 minutes to induce luminescence of PDVF membrane using ECL buffer solution to develop protein expression on each anti-body using an X-ray film.

Take `CCOc1cc(CN(C)C)cc2[nH]c(=O)c3c(c12)NCCC3` [Compound A, 8-[(dimethylamino)methyl]-10-ethoxy-1,2,3,4-tetrahydrobenzo[h][1,6]naphthyridin-5(6H)-one]: the “DNA damage: expression level of r-H2AX (immunocytochemistry)” value in test [1] was “expression of r-H2AX was increased”. In addition, the “degree of apoptosis (trypan blue cell count)” value was “apoptosis is significantly increased” in test [2] and “apoptosis was increased” in test [3].
